This is an account of results in paper PMC12592400, “A unique inhibitor conformation selectively targets the DNA polymerase PolC of Gram-positive priority pathogens” (Nature Communications, 2025).

Assay [1] relates to Enterococcus faecalis ATCC 29212. As to the kind of experiment: Broth microdilution MIC. It counts as cell-based. The method, then:
(§1) Minimal inhibitory concentrations (MICs) were determined by WuXi Apptec, on behalf of Acurx Pharmaceuticals, Inc., for the Gram-positive pathogens: Enterococcus faecium ATCC 700221 (VRE; vancomycin-resistant), Enterococcus faecalis ATCC 29212, Staphylococcus aureus NRS384 (MRSA; methicillin-resistant), Staphylococcus aureus ATCC 29213 (MSSA; methicillin-sensitive), and Streptococcus pneumoniae ATCC 49619 (PRSP; penicillin-resistant). As a control, Gram-negative Escherichia coli ATCC 25922 was included. All strains were obtained from ATCC with the exception of Staphylococcus aureus NRS384, which was obtained from NARSA (Network on Antimicrobial Resistance in Staphylococcus aureus, now part of BEI resources). Bacteria were cultured according to the manuals provided by the suppliers and stored in 25% glycerol (final concentration) at –80 °C.
(§2) Bacterial strains were streaked out onto MHA plates (Mueller-Hinton II Agar; BD-211438) and incubated at 37 °C for 20 h except for S. pneumoniae and Enterococci, which were streaked on blood agar (Huankai-24070). S. pneumoniae was incubated in 5% CO2. Single colonies were suspended in 5 mL sterile saline, the turbidity was adjusted to 0.20 (Siemens MicroScan turbidity metre; equal to ~1.0 × 10^8 colony forming units (CFU)/mL) and then diluted 200x in MHIIB (Mueller-Hinton II […] (BD-211438)) medium. The MHIIB media was supplemented with 5% Lysed Horse Blood (Shanghai YuanMu Biological Technology Co. Ltd. YM-U161) for S. pneumoniae.
(§3) ACX compounds were dissolved in pure DMSO (Sigma 276855) to a concentration of 20 mg/mL. From this, twofold serial dilutions (from […]) in DMSO were transferred to a 96-well source-plate (Axygen-wipp02280) with pure DMSO as a control. 2 µL from the source plate was then transferred into 96-well culture plates (Costar 3788) and inoculated with 198 µL of the bacterial suspension so that each well contained ~5.0 × 10^5 CFU/mL bacteria, 1% DMSO and serially diluted compounds at 0 µg/mL and 0.0625-64 µg/mL in 100 µl medium. For NRS384, which was tested in a separate experiment, 99 µL of bacterial suspension was added to 1 µL of compound. The plates were incubated in ambient atmosphere at 37 °C for 20 h.
A general note: Dilution methods test growth across graded concentrations, often in twofold steps.

Assay [2] has as its system Enterococcus faecium ATCC 700221 (VRE; vancomycin-resistant). As to the kind of experiment: Broth microdilution MIC. It counts as cell-based. The conditions noted are these: for MIC: Enterococcus faecium, read-out: Measured MIC; for Measured MIC: Table 2, polC WT, strain ATCC 700221. How it is done: as §1, §2, §3
For assay [3], the system named is Escherichia coli ATCC 25922. Kind of assay: Broth microdilution MIC. It is filed as cell-based. How it is done:
as §1, §2, §3

For assay [4], the system named is Staphylococcus aureus ATCC 29213 (MSSA; methicillin-sensitive). As to the kind of experiment: Broth microdilution MIC. It counts as cell-based. The note with it: read-out: Measured MIC. How it is done: as §1, §2, §3
Assay [5] deals with Staphylococcus aureus NRS384 (MRSA; methicillin-resistant). Kind of assay: Broth microdilution MIC. The conditions noted are these: read-out: Measured MIC. It counts as cell-based. The method, then: as §1, §2, §3
Assay [6] relates to Streptococcus pneumoniae ATCC 49619 (PRSP; penicillin-resistant). As to the kind of experiment: Broth microdilution MIC. It is filed as cell-based. The note with it: read-out: Measured MIC. How it is done:
as §1, §2, §3

The test system of assay [7] is E. faecium strains with polC mutations (A1281T, F1276I, F1276L, F1276S). As to the kind of experiment: Cross-resistance MIC of reduced susceptible E. faecium strains. It counts as cell-based, Enterococcus faecium. The note with it: for MIC: Enterococcus faecium. How it is done: Strains with reduced susceptibility to ACX compounds were generated by WuXi Apptec on behalf of Acurx Pharmaceuticals, Inc., using E. faecium ATCC 700221 as parental strain.
Agar MICs for the wild-type strain were determined on Blood agar (Huankai). Compounds and linezolid were dissolved in 100% DMSO and vancomycin in ultrapure water. Strains were inoculated onto agar plates, incubated at 37 °C for 20-24 h after which colonies were suspended in sterile 0.9% saline at different bacterial concentrations. 5 μL of bacterial suspensions was individually spotted on agar plates supplemented with compounds at different concentrations, resulting in final concentrations of 10^–1, 10^–2, 10^–3, 10^–4, 10^–5, 10^–6, and 10^–7 per spot. After incubation for 20-24 h, bacterial growth was assessed by visual inspection.
For frequency of resistance (FOR) studies, colonies from the agar plate were suspended into sterile 0.9% saline to get 10^8-10^9 CFU bacterial cells per mL. […] The suspensions were also serially diluted with 0.9% saline and spotted onto agar to determine the actual inoculum. All agar plates were incubated at 37 °C for 48 h. FOR was defined as colony number on each compound-containing plate per CFU number of actual inoculum. Resistant colonies were subcultured on the corresponding compound plates to confirm that colonies were resistant and stable.
Confirmed resistant colonies were used for cross-resistance studies, as described above.
Paired-end short read sequencing data from selected mutants (generated by BGISEQ) as well as the corresponding wild-type parental strain was analysed against the reference genomes for E. faecium strain ATCC 700221 (https://genomes.atcc.org/genomes/f9d13a716ccb4f78) using Geneious R10.2.6 (Biomatters Ltd). Variants were called using the Find Variants/SNPs function with a minimum coverage of 10 and a minimum frequency of 0.8. […] This identified the following mutations in the polC gene: D1103Y in strain Efa4; F1276L in strains Efa030, Efa038, and Efa039; F1276I in strains Efa1 and Efa037; F1276S in strain Efa3; A1281T in strains Efa036, Efa040 and Efa041. Strains Efa036, Efa039, and Efa040 each had only one polymorphism identified.

[8] abbreviates: ATCC29212, read-out: Measured MIC.
[9] abbreviates: ATCC25922, read-out: Measured MIC.
Where [10] appears, read: read-out: Measured MIC, polC A1281T, strain Efa036, selected on 2 mg/L ACX-641.
The mark [11] stands for this setting: read-out: Measured MIC, polC A1281T, strain Efa040, selected on 4 mg/L ACX-671.
[12] abbreviates: read-out: Measured MIC, polC F1276I, strain Efa037, selected on 4 mg/L ACX-641.
The mark [13] stands for this setting: read-out: Measured MIC, polC F1276L, strain Efa030, selected on 16 mg/L ACX-728.
Where [14] appears, read: read-out: Measured MIC, polC F1276S, strain Efa3, selected on 16 mg/L ACX-728.

In brackets after ≈: the same amount, converted by molar mass. Read-outs that look alike come from different tables or passages of the source.

For `CN[C@H](CC(C)C)C(=O)N[C@H]1C(=O)N[C@@H](CC(N)=O)C(=O)N[C@H]2C(=O)N[C@H]3C(=O)N[C@H](C(=O)N[C@H](C(=O)O)c4cc(O)cc(O)c4-c4cc3ccc4O)[C@H](O)c3ccc(c(Cl)c3)Oc3cc2cc(c3O[C@@H]2O[C@H](CO)[C@@H](O)[C@H](O)[C@H]2O[C@H]2C[C@](C)(N)[C@H](O)[C@H](C)O2)Oc2ccc(cc2Cl)[C@H]1O` [VAN, vancomycin], the MIC in assay [1] (setting [8]) was 4 mg/L (≈ 2.76 µM); in assay [2] it was greater than 64 mg/L; in assay [3] (setting [9]) it was greater than 64 mg/L; in assay [4], 1 mg/L (≈ 0.69 µM); in assay [5] it was 1 mg/L (≈ 0.69 µM); in assay [6], 0.25 mg/L (≈ 0.173 µM). The MIC in assay [7] (read-out: Measured MIC) is greater than 64 mg/L. Besides, the “Measured MIC” value in assay [2] was greater than 64 mg/L; in assay [7] (polC A1281T, strain Efa036, selected on 2 mg/L ACX-641), greater than 64 mg/L; in assay [7] (polC F1276I, strain Efa037, selected on 4 mg/L ACX-641) it was greater than 64 mg/L; in assay [7] (polC F1276L, strain Efa030, selected on 16 mg/L ACX-728), greater than 64 mg/L; in assay [7] (polC F1276S, strain Efa3, selected on 16 mg/L ACX-728) it was greater than 64 mg/L.

As for `CCCCCCCCCC(=O)N[C@@H](Cc1c[nH]c2ccccc12)C(=O)N[C@H](CC(N)=O)C(=O)N[C@@H](CC(=O)O)C(=O)N[C@@H]1C(=O)NCC(=O)N[C@@H](CCCN)C(=O)N[C@@H](CC(=O)O)C(=O)N[C@H](C)C(=O)N[C@@H](CC(=O)O)C(=O)NCC(=O)N[C@H](CO)C(=O)N[C@@H]([C@H](C)CC(=O)O)C(=O)N[C@@H](CC(=O)c2ccccc2N)C(=O)O[C@@H]1C` [DAP, daptomycin], the MIC in assay [1] (setting [8]) was 8 mg/L (≈ 4.94 µM); in assay [2] it was 4 mg/L (≈ 2.47 µM); in assay [3] (setting [9]) it was greater than 64 mg/L; in assay [4], 1 mg/L (≈ 0.617 µM); in assay [6], 0.5 mg/L (≈ 0.309 µM); in assay [7] (setting [10]), 4 mg/L. Moreover, the MIC is 4 mg/L in assay [7] (setting [11]), 2 mg/L in assay [7] (setting [12]), 2 mg/L in assay [7] (setting [13]) and 2 mg/L in assay [7] (setting [14]). The “Measured MIC” value in assay [2] was determined as 4 mg/L.

For the compound `CN(C)c1cc(CNCC(C)(C)C)c(O)c2c1C[C@H]1C[C@H]3[C@H](N(C)C)C(O)=C(C(N)=O)C(=O)[C@@]3(O)C(O)=C1C2=O` [OMC, omadacycline], the MIC in assay [1] (ATCC29212, E. faecalis ATCC 29212, Table 1, single replicate, read-out: Measured MIC) was 0.25 mg/L (≈ 0.449 µM); in assay [2] (E. faecium VRE ATCC 700221, Table 1, single replicate), 0.12 mg/L (≈ 0.216 µM); in assay [3] (ATCC25922, E. coli ATCC 25922, Table 1, single replicate, read-out: Measured MIC), 1 mg/L (≈ 1.8 µM); in assay [4] (S. aureus ATCC 29213, Table 1, single replicate), 0.5 mg/L (≈ 0.898 µM); in assay [6] (S. pneumoniae PRSP ATCC 49619, Table 1, single replicate), no more than 0.06 mg/L; in assay [7] (setting [10]), 0.12 mg/L. In addition, the MIC in assay [7] (setting [11]) is 0.12 mg/L; in assay [7] (setting [12]), no more than 0.06 mg/L; in assay [7] (setting [13]), 0.12 mg/L; in assay [7] (setting [14]), no more than 0.06 mg/L. Moreover, the “Measured MIC” value in assay [2] is 0.12 mg/L.
